Laboratory results: patent US9012422B2, “Method of treating acute myelogenous leukemia” (Wake Forest University Health Sciences, priority 2011, dated 2015)
pIC50: −log10 of the molar value. Where two headings read alike, the source gives them in different places.

Tests used:
HL60 cells = experiment: Cell Titer-Glo viability (cytotoxicity) assay, HL60; format: cell-based, human; conditions: 72 hours exposure
Text: (§1) We chose to use doxorubicin as the anthracycline as it is the best tolerated anthracycline in C57/Bl6 mice^11 and would allow for comparisons between in vivo and in vitro studies.

KG1a cells = experiment: Cell Titer-Glo viability (cytotoxicity) assay, KG1a; format: cell-based, human; conditions: 72 hours exposure
Text: as §1

[1] = tested on: MR2 cells (MLL-ENL + NRasG12D); experiment: cells; conditions: Mus musculus, read-out: IC50 MR2
Protocol: (§8) Cells were grown at 37° C. with 5% CO2. Viability assays were done using the Cell Titer-Glo assay (Promega, Madison, Wis.) according to the manufacturer's protocol. All murine cells were derived from fetal liver cells infected with MLL-ENL alone or with a mutation of glycine at amino acid 12 to aspartate of NRAS (NRAS^G12D) or FLT3-ITD expressing vectors^10. Murine cells were maintained in stem cell media (40% DMEM, 40% IMDM, 20% FBS, supplemented with murine SCF to 10 ng/ml, murine IL6 to 2 ng/ml, and murine IL3 to 0.4 ng/ml).

Jurkat cells = experiment: Cell Titer-Glo viability (cytotoxicity) assay, Jurkat; format: cell-based, human; conditions: 72 hours exposure
Text: as §1

OCI-AML3 cells = experiment: Cell Titer-Glo viability (cytotoxicity) assay, OCI-AML3; format: cell-based, human; conditions: 72 hours exposure
Text: as §1

K562 cells [2] = experiment: Cell Titer-Glo viability (cytotoxicity) assay, K562; format: cell-based, human; conditions: 72 hours exposure
Text: as §1

M1 cells (MLL-ENL alone) [3] = experiment: cells; conditions: Mus musculus, read-out: IC50 M1
Protocol: as §8

[4] = tested on: MFL2 cells (MLL-ENL + Flt3 ITD); experiment: cells; conditions: Mus musculus, read-out: IC50 MFL2
Protocol: as §8

THP-1 cells = experiment: Cell Titer-Glo viability (cytotoxicity) assay, THP-1; format: cell-based, human; conditions: 72 hours exposure
Text: as §1

[5] = tested on: human LSCs (K562 and HL60 cells, three primary patient samples); conditions: 24 hours drug, colonies read on or after day 7
Protocol: (A) Colony formation assays. Primary patient samples or cell lines were incubated with the indicated drug for 24 hours and placed in methylcellulose media. Plates were read on or after day 7. All concentrations were done in triplicate. Primary AML is the combined results of three independent primary patient samples. Colony numbers are normalized to controls and error bars represent the standard error.

[6] = tested on: MLL-ENL- and FLT3 ITD-expressing cell line with p53-targeting shRNA; experiment: Cytotoxicity assay of murine AML cells with p53 knockdown; conditions: p53 shRNA vs control vector, 72 hours
Protocol: (A) Cytotoxicity assays of murine AML cells that knockdown p53. Cells were exposed to the indicated drugs for 72 hours and then assessed for viability. Viability is shown as percentage of control; error bars represent the standard error.
Viability assays were done using the Cell Titer-Glo assay (Promega, Madison, Wis.) according to the manufacturer's protocol. All murine cells were derived from fetal liver cells infected with MLL-ENL alone or with a mutation of glycine at amino acid 12 to aspartate of NRAS (NRAS^G12D) or FLT3-ITD expressing vectors^10. Murine cells were maintained in stem cell media (40% DMEM, 40% IMDM, 20% FBS, supplemented with murine SCF to 10 ng/ml, murine IL6 to 2 ng/ml, and murine IL3 to 0.4 ng/ml).

[7] = tested on: MLL-ENL driven murine AML cells
[8] = tested on: MFL2 cell line (MLL-ENL and FLT3 ITD) leukemia in C57/Bl6 mice; conditions: for survival compared to controls: 5-FU 121 mg/kg
Text: FIG. 6. […] A) Schema of treatment trial. C57/Bl6 mice were sublethally irradiated to 4.5 Gy and injected with an MLL-ENL and Fms-like tyrosine kinase 3 internal tandem duplication (FLT3-ITD) syngeneic leukemia. […] (B) Bioluminescent image of mice on day 6 following treatment. (C) Kaplan-Meier curves for animals treated with Fd, 5-FU or AD as above.
(§2) The Wake Forest University Institutional Animal Care and Use Committee approved all mouse experiments. Luciferase-tagged leukemia cells were transplanted into 6- to 8-wk-old sublethally irradiated recipient mice (4.5 Gy) by tail-vein injection of 1×10^6 viable cells. Mice were monitored by bioluminescent imaging on day 7. Imaging was performed using an IVIS100 imaging system (Caliper LifeSciences, Hopkinton, Mass.). Mice were injected with 150 mg/kg D-Luciferin (Gold Biotechnology, St. Louis, Mo.), anesthetized with isoflurane, and imaged for 2 min. Chemotherapy was initiated upon detection of clear signals. […] Control animals were injected with PBS. Repeat luciferase imaging was performed on day 6 of treatment.
(§3) Recent studies have shown that the bone marrow microenvironment can have a profound effect on chemotherapy response in AML^24. Additionally, the immune system can affect the degree of response to a given therapy in vivo^25. […] This cell line express MLL-ENL and the mutated oncogene, NRas^G12D in conjunction with a luciferase reporter. […] This cell line expresses the FLT3 receptor with an internal tandem duplication (FLT3 ITD) in place of NRas^G12D. […] (300 mg/kg), 5-FU (121 mg/kg) or Ara-C (125 mg/kg) plus doxorubicin (3.75 mg/kg) on days 1, 3, 5, and 7 (FIG. 1A).

[9] = tested on: MR2 cell line (MLL-ENL and NRasG12D) leukemia in C57/Bl6 mice
Text: FIG. 12. […] C57/Bl6 mice were sublethally irradiated to 4.5 Gy and injected with an MLL-ENL and NRAS syngeneic leukemia. […] P value was obtained by log rank test. […] P value was obtained by log rank test.
as §2, §3

[10] = molecular target: topoisomerase I cleavage complexes (Top1CC) in THP-1, Jurkat and HL60 cells (Homo sapiens, UniProt P11387); experiment: ICE bioassay / Top1 cleavage complex detection; conditions: 100 nM, 24 or 48 hours
Protocol: (B) ICE bioassay for Top1 cleavage complexes. […] Cells were lysed and subjected to ICE bioassay (see methods), and DNA-containing fractions were blotted for Topo I. (C) Results of TS and Top1 Western blots.
Cells were plated at 1.5×10^6 cells in 100 mm^2 plates and grown in RPMI 1640 medium with 20% FBS. […] Cells were lysed in 2 ml of 1% sarkosyl in 1×TE pH 7.5 and frozen at −20° C. Samples were homogenized approximately 25 times. Addition of 1 ml of sarkosyl was used to wash the homogenizer. CsCl gradients were made as in^9. The samples were overlaid and ultracentrifuged in a SW41T rotor. Centrifugation was at 36K for 20-22 hours at 20° C. 500 ml fractions were collected. Fractions 6 through 11 were used for analysis. 200 ul of each fraction and an equal volume of 25 mM NaPO4 buffer (pH 6.5) were loaded onto a nitrocellulose membrane using a Schleicher and Schuell Minifold II slot blotter. The membrane was blocked with 5% milk in TBST. Primary antibody was added at 1:500 dilution, overnight at 4° C. Secondary antibody was used in the same manner. ECL Lightning Plus (Perkin Elmer) was used for detection of the TOP1 cleavage complex.

THP-1 and HL60 cells = conditions: 48 hours
Protocol: (B) Flow cytometry of Annexin V assay. THP-1 or HL60 cells were treated with the indicated drug for 48 hours and then labeled with Annexin V and propidium iodide (PI) and analyzed by flow cytometry.
(§9) Cells were seeded in 6-well plates at 25,000 cells/ml in 3 mls, grown for 2 days and treated with the indicated drug for 16, 24, 36, or 48 hours. After centrifugation and washing in cold PBS cells were stained with PI (Sigma Aldrich, St. Louis, Mo.) and APC-conjugated Annexin V in a binding buffer (0.1 M Hepes (pH 7.4), 1.4 M NaCl, and 25 mM CaCl2 solution) (BD Pharmingen, San Jose, Calif.) according to the manufacturer's protocol. Flow cytometric analysis was conducted on a BD FACS Cantoll cytometer with the BD FACSDiva software (BD Biosciences, San Jose, Calif.).

[11] = tested on: MR2 cells (MLL-ENL + NRasG12D); conditions: read-out: IC50 MR2
Protocol: as §8

M1 cells (MLL-ENL alone) [12] = conditions: read-out: IC50 M1
Protocol: as §8

[13] = tested on: murine AML cells expressing the p53 shRNA; conditions: 48 hours
Protocol: (B) Flow cytometry of Annexin V assay. Cells expressing the p53 short hairpin RNA (shRNA) were exposed to the indicated drug for 48 hours and then labeled with Annexin V and propidium iodide (PI).
as §9

K562 cells [14] = conditions: 24 hours
Protocol: (A) Immuno-fluorescence for gamma histone H2AX (γH2AX) foci. K562 cells were treated with the indicated drug for 24 hours and then assayed for the presence of γH2AX foci. Secondary antibody was conjugated with Alexa Fluor 594 and Images were captured with an Olympus IX70 inverted fluorescent microscope equipped with a Retiga 2000R digital color camera and using an LPIanFI 20×/0.40 objective. Images were analyzed with Image Pro Plus 5.1 software.
For immunofluorescence studies of phosphorylated γH2AX, cells were fixed with 4% NBF, permeabilized with PBS containing 0.2% Triton-X 100, and probed with anti-phosphoH2AX (#2577, 1:100; Cell Signalling Technologies) followed by donkey anti-rabbit Alexa Fluor 594 conjugated antibody (1:500, A-21207; Invitrogen) and visualized via fluorescence microscopy.

[15] = tested on: MFL2 cells (MLL-ENL + Flt3 ITD); conditions: read-out: IC50 MFL2
Protocol: as §8

murine AML cell lines = conditions: 24 hours
Protocol: FIG. 11. […] (A) Flow cytometry results of Annexin V assays. The indicated MLL-ENL driven leukemia cells were treated with drug for 24 hours analyzed by flow cytometry, as in FIG. 5. (B) MLL-ENL and neuroblastoma RAS viral oncogene homolog (NRAS) containing AML cells were exposed to the indicated drug for 24 hours and analyzed as in (A).

normal murine HSCs = conditions: mouse, in vivo
Protocol: (§4) FIG. 7. […] Mice were treated in the same manner as the in FIG. 6; sacrificed 72 hours after the last dose; and organs were harvested, fixed, paraffin-embedded, sectioned, and stained. Slides were imaged using a Nikon Eclipse 50i light microscope, magnification as indicated. Photographs of tissues were taken using the NIS Elements D3.10 camera and software system. (B) Bone marrow transplant. […] Ly5.1+C57/Bl6 recipient mice were irradiated to 8 gray and injected with donor cells. After three weeks recipients were harvested and degree of femur engraftment by donor cells was determined by staining with Ly5.2 antibody and analyzed by flow cytometry.
(§5) Normal C57/Bl6 mice were treated with identical dose, schedule and route of each drug as in the efficacy studies (i.e. Day 1, 3, 5 and 7). 72 hours after the last dose, animals were sacrificed, bilateral femoral cells harvested and organs fixed in 10% neutral buffered formalin followed by routine tissue processing and sectioning for hematoxylin and eosin staining. Slides were then reviewed by a veterinary pathologist using a Nikon Eclipse 50i light microscope. Photographs of tissues were taken using the NIS Elements D3.10 camera and software system. […] Three weeks later recipient femoral bone marrow was harvested and stained with APC-conjugated anti-Ly5.2 antibody (BD Pharmingen, San Diego, Calif.) and analyzed by flow cytometry. […]

thymidylate synthase = molecular target: T1, thymidylate synthase (Homo sapiens, UniProt P04818); experiment: TS catalytic activity in treated HL60 cells; format: cell-based; conditions: 100 nM 5-FU
T1 construct: endogenous in cells; host or cells: HL60

normal C57/Bl6 mice = experiment: Toxicology study, histopathology; format: in vivo, mouse; conditions: dosed days 1, 3, 5, 7; sacrificed three days after last treatment
Protocol: as §4, §5

[16] = tested on: murine AML cells expressing human MN1; experiment: Cytotoxicity assay of murine AML cells expressing MN1; format: cell-based; conditions: 72 hours
Text: (§6) FIG. 1. […] (B) Flow cytometry of Annexin V assay.
(§7) In addition to p53 loss, several other adverse prognostic factors are expressed in the cell lines tested. K562 cells express the fusion gene BCR-ABL that has been implicated in chemotherapy resistance^17 and prognosis in AML^18. THP-1 cells express high levels of MN1^18, shown to confer an adverse prognosis^20-21.

[17] = tested on: murine AML cells expressing p210 BCR-ABL; experiment: Cytotoxicity assay of murine AML cells expressing p210 BCR-ABL; format: cell-based; conditions: 72 hours
Text: as §6, §7

[18] = days 1, 3, 5 and 7, FdUMP[10] 300 mg/kg

Sequence of topoisomerase I cleavage complexes (Top1CC) in THP-1, Jurkat and HL60 cells (P11387 2-765 limits assumed, one chain of several): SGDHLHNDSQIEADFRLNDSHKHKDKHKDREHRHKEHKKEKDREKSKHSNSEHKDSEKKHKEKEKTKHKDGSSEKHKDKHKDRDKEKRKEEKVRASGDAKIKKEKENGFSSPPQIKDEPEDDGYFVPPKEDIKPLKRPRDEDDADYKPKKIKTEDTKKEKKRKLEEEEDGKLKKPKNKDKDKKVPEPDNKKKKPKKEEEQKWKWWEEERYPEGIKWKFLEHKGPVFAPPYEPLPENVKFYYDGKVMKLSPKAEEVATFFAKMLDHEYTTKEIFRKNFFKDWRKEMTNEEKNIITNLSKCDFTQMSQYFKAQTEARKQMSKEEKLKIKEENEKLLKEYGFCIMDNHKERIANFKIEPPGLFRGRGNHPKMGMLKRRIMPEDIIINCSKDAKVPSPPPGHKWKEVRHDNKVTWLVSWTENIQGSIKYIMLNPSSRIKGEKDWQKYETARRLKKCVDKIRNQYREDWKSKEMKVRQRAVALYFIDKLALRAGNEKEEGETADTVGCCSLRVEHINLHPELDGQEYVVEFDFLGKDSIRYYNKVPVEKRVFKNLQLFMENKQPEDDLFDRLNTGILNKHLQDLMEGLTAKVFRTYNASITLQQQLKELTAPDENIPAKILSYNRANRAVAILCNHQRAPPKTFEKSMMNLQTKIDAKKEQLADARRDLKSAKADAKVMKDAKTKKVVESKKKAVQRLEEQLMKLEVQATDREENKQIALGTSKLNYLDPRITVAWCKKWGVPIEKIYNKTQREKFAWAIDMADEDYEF
T1 sequence (P04818 2-313 limits assumed): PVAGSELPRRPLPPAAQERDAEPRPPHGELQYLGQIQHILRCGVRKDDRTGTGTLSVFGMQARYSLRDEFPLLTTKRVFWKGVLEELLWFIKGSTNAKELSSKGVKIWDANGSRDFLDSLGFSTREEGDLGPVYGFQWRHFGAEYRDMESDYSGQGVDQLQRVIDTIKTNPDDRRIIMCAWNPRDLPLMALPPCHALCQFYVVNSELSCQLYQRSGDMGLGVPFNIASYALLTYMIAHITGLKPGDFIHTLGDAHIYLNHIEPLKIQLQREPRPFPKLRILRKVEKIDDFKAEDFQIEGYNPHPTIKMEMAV

## Nc1ccn([C@@H]2O[C@H](CO)[C@@H](O)[C@@H]2O)c(=O)n1 [Cytarabine, cytarabine]
HL60 cells; Homo sapiens, HL-60
  pIC50: 6.84
KG1a cells; Homo sapiens, KG-1a
  pIC50: 6.71
[1]
  pIC50: 7.14
Jurkat cells; Homo sapiens, Jurkat
  pIC50: 7.81
OCI-AML3 cells; Homo sapiens, OCI-AML-3
  pIC50: 6.87
K562 cells [2]; Homo sapiens, K562
  pIC50: 7.08
M1 cells (MLL-ENL alone) [3]
  pIC50: 7.33
[4]
  pIC50: 7.26
THP-1 cells; Homo sapiens, THP-1
  pIC50: 5.17

## 10-mer oligonucleotide of 5-fluorodeoxyuridine [FdUMP[10]]
[5]
  suppression of colony formation, cell lines and primary patient samples: highly effective in suppressing colony formation
[6]
  change in response (viability) on loss of p53 response: no change observed
[7]; 8 hours exposure
  S-phase arrest in cells expressing a p53 targeting shRNA: efficiently arrested in S-phase
[7]; eight hours exposure
  accumulation of cells in S-phase: cells accumulated in S-phase
[8]; Ara-C 125 mg/kg plus doxorubicin 3.75 mg/kg, days 1, 3, 5, 7
  survival compared to Ara/Dox treated animals: no difference in survival
[8]; [18]
  disease burden (bioluminescent imaging): reduced disease burden
  survival compared to controls: improved survival
[9]; 300 mg/kg every other day for four doses
  survival: significant survival benefit
[9]; 300 mg/kg on days 1 and 4
  disease burden (bioluminescence): reduction in disease burden
  survival vs untreated controls: statistically significant survival benefit
[10]
  trapped Top1 cleavage complexes: Top1 was detected co-migrating with genomic DNA
THP-1 and HL60 cells; 10 or 100 nM
  apoptosis by Annexin V and propidium iodide staining: a majority of cells were stained positive
HL60 cells
  pIC50: 8.47
[11]
  pIC50: 9.91
M1 cells (MLL-ENL alone) [12]
  pIC50: 9.91
KG1a cells
  pIC50: 8.31
[13]
  Annexin V binding in p53-suppressing cells: positive for Annexin V binding
Jurkat cells
  pIC50: 8.27
K562 cells [14]; 10 or 100 nM
  γH2AX foci (DNA DSBs): formation of multiple γH2AX foci
OCI-AML3 cells
  pIC50: 8.26
[15]
  pIC50: 9.88
Murine AML cell lines
  apoptosis induction in murine AML cell lines: efficiently induced apoptosis
K562 cells [2]
  pIC50: 7.67
THP-1 cells
  pIC50: 8.39

## O=c1[nH]cc(F)c(=O)[nH]1 [5-FU, 5-fluorouracil]
Normal murine HSCs
  engraftment of femur cells from treated donors in irradiated recipients: only minimal engraftment
[7]; eight hours, 5-FU at 100 times the FdUMP[10] concentration
  accumulation of cells in S-phase: essentially no difference in the number of cells in S-phase from control
[8]; 5-FU 121 mg/kg days 1, 3, 5, 7
  deaths on treatment: early deaths
[8]; [18]
  survival compared to controls: no survival benefit over controls
Thymidylate synthase
  TS inhibition: did not significantly inhibit TS
THP-1 and HL60 cells; 100 nM 5-FU
  apoptosis by Annexin V staining: only minimal annexin V positive cells
HL60 cells; Homo sapiens, HL-60
  pIC50: 5.30
KG1a cells; Homo sapiens, KG-1a
  pIC50: 5.28
[1]
  pIC50: 6.67
Normal C57/Bl6 mice
  GI-tract histopathology (small and large intestine): severe villous blunting and fusion with crypt necrosis
  bone marrow histopathology: severe pancytopenia
Jurkat cells; Homo sapiens, Jurkat
  pIC50: 5.12
K562 cells [14]; 1 μM
  γH2AX foci (DNA DSBs): did not result in the formation of γH2AX foci
K562 cells [2]; Homo sapiens, K562
  pIC50: 5.15
[4]
  pIC50: 6.53
THP-1 cells; Homo sapiens, THP-1
  pIC50: 5.92

## COc1cccc2c1C(=O)c1c(O)c3c(c(O)c1C2=O)C[C@@](O)(C(=O)CO)C[C@@H]3O[C@H]1C[C@H](N)[C@H](O)[C@H](C)O1 [Doxorubicin, doxorubicin]
[6]
  change in response (viability) on loss of p53 response: resistance
[16]
  fold change of IC50 vs parental leukemia cells, MN1: > 10 fold
HL60 cells; Homo sapiens, HL-60
  pIC50: 7.66
KG1a cells; Homo sapiens, KG-1a
  pIC50: 5.89
[1]
  pIC50: 7.94
[17]
  fold change of IC50 vs parental leukemia cells, p210 BCR-ABL: 2.95 fold
Jurkat cells; Homo sapiens, Jurkat
  pIC50: 7.12
K562 cells [2]; Homo sapiens, K562
  pIC50: 6.60
M1 cells (MLL-ENL alone) [3]
  pIC50: 8.43
[4]
  pIC50: 7.61
THP-1 cells; Homo sapiens, THP-1
  pIC50: 6.79
